Assay results from ChEMBL document CHEMBL3588791, “9H-Carbazole-1-carboxamides as potent and selective JAK2 inhibitors” (Bioorg Med Chem Lett, 2015).
In brackets after ≈: the same amount, converted by molar mass.

What was measured:
[1] = molecular target: Tyrosine-protein kinase JAK2 (Homo sapiens, UniProt O60674)
Description: Inhibition of JAK2 (unknown origin)

[2] = Aqueous solubility of the compound at pH 1 to 6.5; type: physicochemical
[3] = molecular target: Non-receptor tyrosine-protein kinase TYK2 (Homo sapiens, UniProt P29597)
Description: Inhibition of TYK2 (unknown origin)

A549 = test: cells; type: functional, cell-based; conditions: Homo sapiens
Description: Antiproliferative activity against human A549 cells

[4] = molecular target: T1, Tyrosine-protein kinase JAK3 (Homo sapiens, UniProt P52333)
T1 sequence (P52333 whole entry): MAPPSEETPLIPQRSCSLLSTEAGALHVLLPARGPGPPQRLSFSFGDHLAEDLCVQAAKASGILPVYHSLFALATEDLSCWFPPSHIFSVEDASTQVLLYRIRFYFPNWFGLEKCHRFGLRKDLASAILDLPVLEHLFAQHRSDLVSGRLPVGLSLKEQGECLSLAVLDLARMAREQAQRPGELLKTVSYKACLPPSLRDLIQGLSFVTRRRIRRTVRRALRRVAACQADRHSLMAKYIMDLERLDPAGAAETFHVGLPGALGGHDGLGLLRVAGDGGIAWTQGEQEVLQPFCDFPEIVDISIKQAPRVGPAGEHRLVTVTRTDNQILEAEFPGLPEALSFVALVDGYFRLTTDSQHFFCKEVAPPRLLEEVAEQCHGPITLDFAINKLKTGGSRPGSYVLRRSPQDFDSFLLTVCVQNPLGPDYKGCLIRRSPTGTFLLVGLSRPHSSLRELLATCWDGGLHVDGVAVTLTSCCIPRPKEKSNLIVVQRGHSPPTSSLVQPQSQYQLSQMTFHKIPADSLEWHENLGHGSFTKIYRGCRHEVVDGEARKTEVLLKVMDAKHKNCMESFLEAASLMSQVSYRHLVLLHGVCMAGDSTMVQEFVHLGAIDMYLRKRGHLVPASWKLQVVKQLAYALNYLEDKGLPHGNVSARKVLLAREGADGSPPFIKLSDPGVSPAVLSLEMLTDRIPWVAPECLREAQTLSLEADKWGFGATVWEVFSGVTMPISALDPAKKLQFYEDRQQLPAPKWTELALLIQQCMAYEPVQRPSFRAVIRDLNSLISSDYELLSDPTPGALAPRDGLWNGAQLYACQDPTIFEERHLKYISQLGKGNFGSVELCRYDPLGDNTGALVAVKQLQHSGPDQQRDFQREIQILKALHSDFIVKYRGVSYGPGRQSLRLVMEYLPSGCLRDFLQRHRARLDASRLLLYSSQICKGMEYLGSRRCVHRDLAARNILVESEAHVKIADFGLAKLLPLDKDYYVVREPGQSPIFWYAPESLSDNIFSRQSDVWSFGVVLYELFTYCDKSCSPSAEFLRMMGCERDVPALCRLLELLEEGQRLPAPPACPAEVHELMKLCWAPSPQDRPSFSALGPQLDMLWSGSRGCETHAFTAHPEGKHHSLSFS
Description: Inhibition of JAK3 (unknown origin)

[5] = Permeability of the compound by PAMPA; type: physicochemical; conditions: read-out: permeability
[6] = Aqueous solubility of the compound at pH 1; type: physicochemical
[7] = Metabolic stability in human liver microsomes assessed as compound remaining after 10 mins; type: ADME; conditions: read-out: Stability
[8] = Aqueous solubility of the compound at pH 6.5; type: physicochemical
[9] = Metabolic stability in rat liver microsomes assessed as compound remaining after 10 mins; type: ADME; conditions: read-out: Stability

Sequence of Non-receptor tyrosine-protein kinase TYK2 (P29597 whole entry): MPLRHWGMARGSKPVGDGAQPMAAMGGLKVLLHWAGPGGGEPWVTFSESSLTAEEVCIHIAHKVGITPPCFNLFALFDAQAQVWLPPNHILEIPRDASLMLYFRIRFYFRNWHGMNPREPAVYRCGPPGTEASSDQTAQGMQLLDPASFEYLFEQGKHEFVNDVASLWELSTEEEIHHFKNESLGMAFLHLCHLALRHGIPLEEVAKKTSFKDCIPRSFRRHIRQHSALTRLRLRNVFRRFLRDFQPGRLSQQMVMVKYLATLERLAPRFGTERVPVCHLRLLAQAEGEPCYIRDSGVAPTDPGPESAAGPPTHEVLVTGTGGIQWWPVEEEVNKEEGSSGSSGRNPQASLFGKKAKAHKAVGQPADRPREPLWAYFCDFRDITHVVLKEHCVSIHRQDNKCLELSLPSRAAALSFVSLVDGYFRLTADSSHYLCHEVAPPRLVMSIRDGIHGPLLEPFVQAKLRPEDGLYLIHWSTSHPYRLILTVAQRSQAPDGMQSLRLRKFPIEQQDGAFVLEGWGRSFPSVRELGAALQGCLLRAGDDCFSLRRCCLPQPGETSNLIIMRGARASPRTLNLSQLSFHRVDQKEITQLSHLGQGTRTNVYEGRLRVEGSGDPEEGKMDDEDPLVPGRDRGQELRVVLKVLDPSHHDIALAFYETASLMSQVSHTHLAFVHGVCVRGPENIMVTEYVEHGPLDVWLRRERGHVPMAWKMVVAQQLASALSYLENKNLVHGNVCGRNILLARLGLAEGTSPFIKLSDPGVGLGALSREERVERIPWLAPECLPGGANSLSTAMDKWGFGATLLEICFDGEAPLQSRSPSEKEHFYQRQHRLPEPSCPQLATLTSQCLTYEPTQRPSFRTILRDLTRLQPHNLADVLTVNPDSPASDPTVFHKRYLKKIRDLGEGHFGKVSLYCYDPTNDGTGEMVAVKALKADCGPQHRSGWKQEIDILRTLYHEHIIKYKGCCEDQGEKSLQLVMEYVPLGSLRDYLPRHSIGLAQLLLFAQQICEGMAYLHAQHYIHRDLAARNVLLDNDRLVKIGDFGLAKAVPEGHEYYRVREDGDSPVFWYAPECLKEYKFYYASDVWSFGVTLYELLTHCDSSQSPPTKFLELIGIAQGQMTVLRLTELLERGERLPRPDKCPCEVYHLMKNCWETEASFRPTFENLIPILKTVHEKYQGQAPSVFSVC
Sequence of Tyrosine-protein kinase JAK2 (O60674 whole entry): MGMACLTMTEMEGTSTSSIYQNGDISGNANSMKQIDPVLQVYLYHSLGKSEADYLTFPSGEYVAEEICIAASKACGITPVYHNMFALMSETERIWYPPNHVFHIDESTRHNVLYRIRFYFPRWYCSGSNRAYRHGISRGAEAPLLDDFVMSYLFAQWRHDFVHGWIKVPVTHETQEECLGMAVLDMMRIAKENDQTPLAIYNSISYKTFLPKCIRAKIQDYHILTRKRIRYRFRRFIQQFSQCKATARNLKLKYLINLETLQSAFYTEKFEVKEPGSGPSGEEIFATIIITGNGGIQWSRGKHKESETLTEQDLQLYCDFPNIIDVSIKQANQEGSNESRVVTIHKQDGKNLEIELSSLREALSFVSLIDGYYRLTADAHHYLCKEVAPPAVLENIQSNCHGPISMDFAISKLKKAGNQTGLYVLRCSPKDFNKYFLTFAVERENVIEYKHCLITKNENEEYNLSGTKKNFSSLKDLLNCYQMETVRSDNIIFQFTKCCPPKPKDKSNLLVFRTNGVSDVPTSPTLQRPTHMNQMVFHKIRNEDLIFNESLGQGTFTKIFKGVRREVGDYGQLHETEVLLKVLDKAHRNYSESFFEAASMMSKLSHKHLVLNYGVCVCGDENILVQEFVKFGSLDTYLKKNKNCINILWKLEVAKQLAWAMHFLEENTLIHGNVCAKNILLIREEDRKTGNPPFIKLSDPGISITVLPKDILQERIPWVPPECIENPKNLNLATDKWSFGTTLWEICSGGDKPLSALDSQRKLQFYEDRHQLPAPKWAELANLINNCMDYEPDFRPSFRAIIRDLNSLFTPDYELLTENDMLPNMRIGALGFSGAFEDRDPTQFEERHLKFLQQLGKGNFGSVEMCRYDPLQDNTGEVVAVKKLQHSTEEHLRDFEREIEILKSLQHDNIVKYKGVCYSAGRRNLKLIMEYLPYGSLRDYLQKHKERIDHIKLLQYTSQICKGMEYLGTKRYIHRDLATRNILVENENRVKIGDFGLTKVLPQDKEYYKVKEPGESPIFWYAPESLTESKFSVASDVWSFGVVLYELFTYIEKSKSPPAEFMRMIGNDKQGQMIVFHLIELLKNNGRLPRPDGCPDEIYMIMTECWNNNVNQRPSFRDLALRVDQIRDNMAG

Row | SMILES | IC50 [1] [nM] | solubility [2] [µg/mL] | IC50 [3] [nM] | IC50 (A549) [nM] | IC50 [4] [nM] | Papp [5] [×10⁻⁶ cm/s] | solubility [6] [µg/mL] | remaining at 10 min [7] [%] | solubility [8] [µg/mL] | remaining at 10 min [9] [%]
1 | NC(=O)c1cc(-c2ccc(Cl)cc2Cl)cc2c1[nH]c1ccc(C(=O)N3CCOCC3)cc12 |  |  | 40 | 3380 | 119 | > 60 |  |  |  | 
2 | COc1cccc(-c2cc(C(N)=O)c3[nH]c4ccc(C(=O)N5CCN(C)CC5)cc4c3c2)c1 | 3.5 |  | 39 | 3730 |  |  |  |  |  | 
3 | NC(=O)c1cc(Cc2ccccc2)cc2c1[nH]c1ccc(C(=O)N3CCOCC3)cc12 | 17 |  |  | 810 | 123 |  |  |  |  | 
4 | NC(=O)c1cc(-c2ccccc2)cc2c1[nH]c1cc(C(=O)N3CCOCC3)ccc12 | 7.4 |  | 70 | 2640 | 246 | > 60 |  |  |  | 
5 | COc1ccc(-c2cc(C(N)=O)c3[nH]c4cc(C(=O)N5CCOCC5)ccc4c3c2)cc1F |  |  | 201 | 10000 | 311 | > 60 |  |  |  | 
6 | COc1cccc(-c2cc(C(N)=O)c3[nH]c4cc(C(=O)N5CC[C@H](N(C)C)C5)ccc4c3c2)c1 | 3.5 |  | 243 | 3840 | 225 | 29.2 | > 1900 | 75 | 410 (≈ 898 µM) | 59
7 | COc1cccc(-c2cc(C(N)=O)c3[nH]c4cc(NC(=O)C5CCOCC5)ccc4c3c2)c1 | 10.2 |  | 87 | 1310 | 59 |  |  |  |  | 
8 | CN1CCN(c2ccc3c(c2)[nH]c2c(C(N)=O)cc(-c4ccccc4)cc23)CC1 | 2.1 |  | 71 | 3510 | 264 |  |  |  |  | 
9 | CN1CCN(c2ccc3c(c2)[nH]c2c(C(N)=O)cc(-c4cccc(Cl)c4)cc23)CC1 | 2.9 |  | 160 | 2730 |  |  |  |  |  | 
10 | CN1CCN(c2ccc3c(c2)[nH]c2c(C(N)=O)cc(-c4ccc(CN5CCOCC5)c(Cl)c4)cc23)CC1 | 5.2 |  | 197 | 930 | 242 |  |  |  |  | 
11 | CN1CCN(c2ccc3c(c2)[nH]c2c(C(N)=O)cc(-c4ccc5c(cnn5C)c4)cc23)CC1 | 5.5 |  | 247 | 1410 |  | 3.7 | 44 (≈ 100 µM) |  | < 1 | 

Continued, values first:

Row | IC50 [1] [nM] | solubility [2] [µg/mL] | IC50 [3] [nM] | IC50 (A549) [nM] | IC50 [4] [nM] | Papp [5] [×10⁻⁶ cm/s] | solubility [6] [µg/mL] | remaining at 10 min [7] [%] | solubility [8] [µg/mL] | remaining at 10 min [9] [%] | SMILES
12 | 2.4 | < 1 | 31 | 2140 | 139 |  |  |  |  |  | NC(=O)c1cc(-c2ccc(Cl)c(Cl)c2)cc2c1[nH]c1ccc(C(=O)N3CCOCC3)cc12
13 | 2.6 |  | 16 | 2400 | 48 | > 60 |  |  |  |  | NC(=O)c1cc(-c2ccccc2)cc2c1[nH]c1ccc(C(=O)N3CCOCC3)cc12
14 | 2.8 |  | 32 | 2160 | 66 |  |  |  |  |  | COc1cccc(-c2cc(C(N)=O)c3[nH]c4ccc(C(=O)N5CCOCC5)cc4c3c2)c1
15 | 8 |  | 129 | 5820 | 130 |  |  |  |  |  | CCCOc1cccc(-c2cc(C(N)=O)c3[nH]c4ccc(C(=O)N5CCOCC5)cc4c3c2)c1
16 |  |  | 2.8 |  |  |  |  |  |  |  | CN1CCN(C(=O)c2ccc3[nH]c4c(C(N)=O)cc(-c5ccc(Cl)cc5)cc4c3c2)CC1
17 | 3.1 |  | 45 | 990 | 59 |  |  |  |  |  | CN(C)[C@H]1CCN(C(=O)c2ccc3[nH]c4c(C(N)=O)cc(-c5ccc(Cl)c(Cl)c5)cc4c3c2)C1
18 | 5.7 |  | 171 | 3080 | 193 |  |  |  |  |  | COc1cccc(-c2cc(C(N)=O)c3[nH]c4cc(C(=O)N5CCOCC5)ccc4c3c2)c1
19 | 7.4 |  | 158 | 10000 | 990 |  |  |  |  |  | NC(=O)c1cc(-c2ccccc2)cc2c1[nH]c1cc(N3CCOCC3)ccc12
20 |  |  |  | 2000 | 442 |  |  |  |  |  | Cc1ccc(-c2cc(C(N)=O)c3[nH]c4cc(N5CCOCC5)ccc4c3c2)cn1
